According to patent US20180333379A1 (priority 2018, published 2018):

Legend:
[1] = cited from earlier work
[2] = system: neurons; conditions: cited from earlier work
[3] = target: T1, β-amyloid peptide(1-40) (Homo sapiens, UniProt P05067); conditions: cited from earlier work
T1 construct: when incubated with β-amyloid peptide(1-40); (Park, Kim, Son, & Yang, 2009)

[4] = 280-310 milliosmoles per liter, pH 6-8, animal preparation; cited from earlier work
[5] = target: T2, amyloid β peptide(1-40) aggregates (Homo sapiens, UniProt P05067); test: Citrate treatment of amyloid β peptide(1-40) aggregates (thioflavin T fluorescence microscopy); type: biochemical; conditions: 48 hours, 37° C.
T2 construct: amyloid β peptide(1-40) (Abcam, Cambridge, United Kingdom); purchased Abcam, Cambridge, United Kingdom
Experimental: (§1) In the following experiments, the concentration of thioflavin T was thirty micromolar in phosphate buffered saline (PBS), and the staining time was five minutes.
(§2) In the following experiments, an […] observer interpreted fluorescence. Interpretation of microscopic fluorescence intensity may be subject to bias. Staining times and washes were controlled.
A precipitate formed and the sample was centrifuged at 1500 rpm for five minutes. […] Then, five microliters of thioflavin T were added to each sample, and after five minutes, the samples were centrifuged at 1500 rpm for five minutes and washed twice with PBS. Aggregates in the micro centrifuge tubes were aspirated and observed under an epifluorescent microscope with B2 filter. (Table 3)

[6] = target: T3, β-2-microglobulin aggregates (Homo sapiens, UniProt P61769); test: Citrate treatment of β-2-microglobulin aggregates (thioflavin T fluorescence microscopy); type: biochemical; conditions: 2 weeks, thioflavin T stain
T3 construct: purchased Lee Biosolutions, Maryland Heights, Mo
Experimental: as §1, §2
One milliliter of β-2-microglobulin (Lee Biosolutions, Maryland Heights, Mo.) at a concentration of 1 mg/0.5 ml were mixed with two milliliters of 10 mM calcium chloride in normal saline at 37° C. for three weeks, and a precipitate formed. […] The precipitate was aspirated and stained with 10 microliters of thioflavin T, washed twice with phosphate bufferd saline (PBS), and each sample was observed under an epifluorescent microscope with B2 filter (excitation filter, 450-490 nm; barrier filter, 520 nm). (Table 1)

[7] = target: alpha synuclein (Homo sapiens, UniProt P37840); conditions: 10 mM calcium chloride in PBS, 37° C., four weeks
Experimental: Five hundred micrograms of alpha synuclein (rPeptide, LLC, Athens, Ga.) was dissolved in 400 microliters of 10 mM calcium chloride in PBS and incubated at 37° C. for four weeks.

T3 sequence (P61769 21-119): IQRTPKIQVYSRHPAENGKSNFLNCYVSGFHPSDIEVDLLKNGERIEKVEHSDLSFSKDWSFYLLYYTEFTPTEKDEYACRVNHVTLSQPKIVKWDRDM
T2 sequence (P05067 672-711 limits assumed): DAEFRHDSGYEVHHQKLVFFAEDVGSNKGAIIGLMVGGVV
T1 sequence (P05067 672-711 limits assumed): as above

## O=C(O)CC(O)(CC(=O)O)C(=O)O [Citrate]
[1]; in vivo
  Blood brain barrier crossing: freely crosses the blood brain barrier
  Cerebral spinal fluid to plasma concentration of citrate: approximately two-three to one
[1]; normal volunteers
  Average CSF concentration: 0.18 mM
  Average plasma citrate concentration: 0.09 mM
[1]; patients with cerebrovascular disorders
  CSF citrate concentration: ≤ 0.3 mM
[2]
  Protection of neurons from apoptotic effects of β-amyloid peptide(1-40): protect neurons from the apoptotic effects
[3]
  Formation of amyloid-like aggregates: inhibit formation of amyloid-like aggregates

## O=C([O-])CC(O)(CC(=O)[O-])C(=O)[O-].[Na+].[Na+].[Na+] [Sodium citrate, sodium citrate]
[4]
  Effect on vertebral bone weight: decreased vertebral bone weight
  Effect on weight of ligamentum flavum, dura mater, and spinal cord: minimal effect
[5]; sodium citrate 0.01 mM in PBS
  Thioflavin T fluorescence: Present
[5]; sodium citrate 0.10 mM in PBS
  Thioflavin T fluorescence: Present
[5]; sodium citrate 1.00 mM in PBS
  Thioflavin T fluorescence: Minimally present
[5]; sodium citrate 10.00 mM in PBS
  Thioflavin T fluorescence: Absent
[6]; sodium citrate 0.01 mM
  Presence of fluorescent fibrils: Present
[6]; sodium citrate 0.1 mM
  Presence of fluorescent fibrils: Present
[6]; sodium citrate 10 mM
  Presence of fluorescent fibrils: Absent
[6]; sodium citrate 100 mM
  Presence of fluorescent fibrils: Absent
[6]; sodium citrate 1M
  Presence of fluorescent fibrils: Present

## [Ca+2].[Cl-].[Cl-] [calcium chloride]
[7]
  Precipitate formation: No precipitate formed
